Measurements reported in patent publication US20060115895A1, “Fish disease models and uses thereof” (priority 2002, published 2006).
Where two headings read alike, the source gives them in different places.

Columns and labels:
[1] = system: fish reared in nicotine
Description: (§1) Fish were reared in nicotine from 2 dpf (immediately after hatching) to 7 d.p.f. at concentrations (in the fish water) of 0.5, 2.5, 5, 25, 50 ug/ml (5 fish per test group). The nicotine medium was then removed and replaced with E3M (embryo medium) at 7 d.p.f. They were then challenged at 8 d.p.f. with 2.5 ug/ml nicotine in 3% methyl cellulose.
Details of the toxicity dose/response experiment are given below: […]

[2] = system: fish reared in nicotine; details: for fish attracted to nicotine impregnated methyl cellulose: previously bathed at 5 ug/ml, 5 fish per group; for response/preference to nicotine: challenged 8 d.p.f. with 2.5 ug/ml nicotine in 3% methyl cellulose
Description: as §1

[3] = system: zebrafish of tup background; assay: DMSO tolerance of zebrafish; format: in vivo
Description: Zebrafish of tup background were tested in batches of 10. DMSO was added to fish water on day 3 and fish examined daily up to day 9. […] Motoric behaviour was also normal.

[4] = system: epilepsy induced in the fish; assay: anti-seizure effect in fish with induced epilepsy; format: in vivo; details: concentration in fish water
Description: Continuing with the example of epilepsy by way of illustration, in embodiments of this aspect of the present invention a known drug may be administered to the fish, for example sodium valproate. Epilepsy is then induced in the fish. Additional test substances, such as candidate chemicals, or genetic mutation may then be applied to the fish and assessed for their anti-epileptogenic effect. […] Any combination of these and/or other drugs or test substances may be arrayed in every possible combination and tested for synergistic efficacy. Appropriate doses vary from 1 nM to 100 mM, e.g. 0.1 μM to 10 mM, with 100 uM being a reasonable starting concentration to assess.

[5] = system: interleukin 11 transgene (tetracycline inducible system); details: mouse, in vivo; cited from earlier work
[6] = 1% DMSO (10 ul/ml), added day 3, examined daily up to day 9

Structure (SMILES): CN1CCCC1c1cccnc1 (stereo not shown) [nicotine]
- escape response when prodded ([1]; 0.5 ug/ml, 3 d.p.f.): escape response as above
- survival ([1]; 0.5 ug/ml, 3 d.p.f.): all alive
- escape response when prodded ([1]; 0.5 ug/ml, 4 d.p.f.): escape response as above
- survival ([1]; 0.5 ug/ml, 4 d.p.f.): all alive
- escape response when prodded ([1]; 2.5 ug/ml, 3 d.p.f.): escape response as above
- survival ([1]; 2.5 ug/ml, 3 d.p.f.): all alive
- escape response when prodded ([1]; 2.5 ug/ml, 4 d.p.f.): escape response as above
- survival ([1]; 2.5 ug/ml, 4 d.p.f.): all alive
- escape response when prodded ([1]; 5.0 ug/ml, 3 d.p.f.): escape response as above
- survival ([1]; 5.0 ug/ml, 3 d.p.f.): all alive
- escape response when prodded ([1]; 5.0 ug/ml, 4 d.p.f.): escape response as above
- survival ([1]; 5.0 ug/ml, 4 d.p.f.): all alive
- escape response when prodded ([1]; 25 ug/ml, 3 d.p.f.): twitch but no escape response when prodded
- survival ([1]; 25 ug/ml, 3 d.p.f.): all alive
- escape response when prodded ([1]; 25 ug/ml, 4 d.p.f.): twitch but no escape response when prodded
- survival ([1]; 25 ug/ml, 4 d.p.f., 5 fish per group): 4 dead, 1 alive
- escape response when prodded ([1]; 50 ug/ml, 3 d.p.f.): twitch but no escape response when prodded
- survival ([1]; 50 ug/ml, 3 d.p.f.): all alive
- survival ([1]; 50 ug/ml, 4 d.p.f.): all, dead
- toxicity ([2]; 25 ug/ml in fish water from 2 dpf): Toxicity was seen
- toxicity ([2]; 50 ug/ml in fish water from 2 dpf): Toxicity was seen
- fish attracted to nicotine impregnated methyl cellulose ([2]; by 4 mins): 2 fish
- fish attracted to nicotine impregnated methyl cellulose ([2]; by 5 mins): 3 fish
- fish attracted to nicotine impregnated methyl cellulose ([2]; by 15 mins): 4 fish
- response/preference to nicotine ([2]; previously bathed in 0.5 ug/ml): no response/preference
- response/preference to nicotine ([2]; previously bathed in 2.5 ug/ml): no response/preference

Structure (SMILES): C[S+](C)[O-] [DMSO, dimethyl sulphoxide]
- abnormality on detailed examination under dissecting microscope [3, 6]: no abnormality was detected
- motoric behaviour [3, 6]: normal
- DMSO concentration zebrafish can tolerate ([3]; final concentration in fish water): 1%

Structure (SMILES): CN1C(=O)CN=C(c2ccccc2)c2cc(Cl)ccc21 [diazepam]
- concentration showing therapeutic effects in monotherapy [4]: 35 µM

Structure (SMILES): C[C@H]1c2cccc(O)c2C(=O)C2=C(O)[C@]3(O)C(=O)C(C(N)=O)=C(O)[C@@H](N(C)C)[C@@H]3[C@@H](O)[C@@H]21 [doxycycline]
- toxicity to embryos treated in utero, pups or adults [5]: no apparent toxicity
